Source: patent publication US11337627B2, “Bioelectrode for detection and/or oxidation of glucose, its production method and device” (CENTRE NATIONAL DE LA RECHERCHE SCIENTIFIQUE, priority 2016, dated 2022)

Assays:
[1] = tested on: FAD-GDH enzyme; assay: Cyclic voltammetry of bioelectrodes (carbon nanotubes / aromatic molecule / FAD-GDH) without and with glucose; format: biochemical
Procedure: In FIG. 4, the following terms have the following meanings: • uCNT=carbon nanotubes alone, • FADGDH=CNTs functionalized by FAD-GDH, • 25 mM glucose=CNTs functionalized by FAD-GDH in the presence of a glucose solution at 25 mmol L^−1, • 25 mM glucose (FAD region)=same as above, including the electroactive region of the FAD-GDH cofactor (FAD) in the measurement window in the presence of a glucose solution at 25 mmol L^−1, • FAD=Flavin Adenine Dinucleotide, • 25 mM glucose=concentration of the glucose solution of 25 mmol L^−1, • PYR-NHS=N-hydroxysuccinimide ester of pyrene-butyric acid, • PYR=pyrene, • 1.4-NQ=1.4-naphthoquinone, • PQ=9.10-phenanthrenequinone, • PL=1.10-phenanthroline, • MPL=5-methyl-1.10-phenanthroline, • PLQ=1.10-phenanthroline-5.6-dione.
The tested electrode was a vitreous carbon electrode (support 1) coated with layer 2 of carbon nanotubes alone (Comparative Example 2) or in which the FAD-GDH enzyme alone was deposited on layer 2 of carbon nanotubes (Comparative Example 4).
The dashed curve denoted 3 represents the cyclic voltammogram obtained with a larger electrochemical window (from −0.600 to 0.100 V vs SCE), in the presence of a glucose solution at 25 mmol L^−1.
In FIG. 4, the cartridge C represents the cyclic voltammograms of the electrode of Comparative Example 6 consisting of a vitreous carbon electrode, of layer 2 of carbon nanotubes functionalized by layer 3 of an aromatic molecule which is 1-pyrenebutyric acid N-hydroxysuccinimide ester (PANHS).
Cartridges D, G and H represent the cyclic voltammograms of the electrodes obtained in Examples 4, 5 and 6 respectively.
Cartridges E, F and I show the cyclic voltammograms obtained with the electrodes obtained in Examples 7, 8 and 1 respectively.

[2] = tested on: FAD-GDH enzyme; assay: Cyclic voltammetric inhibition assays: FAD-GDH directly on carbon nanotubes, aromatic molecules added in solution; format: biochemical; conditions: 100 mmol L^−1 glucose; for catalytic current when the aromatic molecule is present in solution, versus absence of redox mediator: electrode of Comparative Example 4; for effect on performance of bioelectrocatalysis over time (inhibition of FAD-GDH): added in solution; for effect on catalytic currents (inhibition of FAD-GDH): 200 μmol L^−1 in solution, sampling times of less than three hours
Procedure: They were obtained with electrodes whose layer of FAD-GDH enzymes is directly deposited on layer 2 of carbon nanotubes in the presence of 100 mmol L^−1 of glucose solution.
The aromatic molecules 9.10-phenanthrenequinone, 1.10-phenanthroline-5.6-dione, phenanthrene and 1.10-phenanthroline are then gradually added in solution.
0 μM PX=CNTs functionalized by FAD-GDH in the presence of a glucose solution at 100 mmol L^−1 and in the absence of any aromatic molecules (X representing the aromatic molecule PLQ (cartridge A) or PQ (cartridge B))
400 μM PX=CNTs functionalized by FAD-GDH in the presence of a glucose solution at 100 mmol L^−1 and 400 μmol L^−1 of an aromatic molecule PLQ (cartridge A) or PQ (cartridge B)
400 μM PX (180 min)=CNTs functionalized by FAD-GDH in the presence of a glucose solution at 100 mmol L^−1 and […] of an aromatic molecule PLQ (cartridge A) or PQ (cartridge B) after incubation in the solution with a duration of 180 minutes.
200 μM PQ=CNTs functionalized by FAD-GDH in the presence of a solution of glucose at 100 mmol L^−1 and 200 μmol L^−1 of an aromatic molecule PQ (cartridge C and D)
200 μM PQ+200 μM PY (180 min)=CNTs functionalized by FAD-GDH in the presence of a glucose solution at 100 mmol L^−1, 200 μmol L^−1 of an aromatic molecule PQ and 200 μmol L^−1 of an aromatic molecule PY after incubation in the solution for a duration of 180 minutes. (Y represents the aromatic molecule PL (cartridge C) or PH (cartridge D)). • PLQ=1.10-phenanthroline-5.6-dione. • PQ=9.10-phenanthrenequinone, • PL=1.10-phenanthroline, • PH=phenanthrene,
The electrode tested was a vitreous carbon electrode (support 1) in which the FAD-GDH enzyme alone was deposited on layer 2 of carbon nanotubes (Comparative Example 4).

[3] = tested on: FAD-GDH enzyme; assay: as above; format: biochemical; conditions: 100 mmol L^−1 glucose, 400 μmol L^−1 aromatic molecule
[4] = tested on: enzyme FAD-GDH; conditions: known; supplier catalog; cited from earlier work

Structure (SMILES) | glucose concentration at saturation ([1]; aromatic molecule immobilized on carbon nanotube layer with FAD-GDH) | electrocatalytic current ([1]; aromatic molecule immobilized on carbon nanotube layer with FAD-GDH, potentials higher than 0 V vs SCE, after saturation with glucose) | electron transfer behavior of the aromatic molecule towards FAD-GDH ([1]; non-covalent immobilization on a layer of carbon nanotubes) | catalytic current when the aromatic molecule is present in solution, versus absence of redox mediator [2] | effect on performance of bioelectrocatalysis over time (inhibition of FAD-GDH) [2] | change of catalytic current after 180 min incubation (inhibition of FAD-GDH) [3] | change of catalytic current after 180 min incubation together with PQ (inhibition of FAD-GDH) ([2]; 200 μmol L^−1 PQ and 200 μmol L^−1 tested molecule, 180 min) | inhibitory activity for FAD-GDH oxidation of glucose [4] | effect on catalytic currents (inhibition of FAD-GDH) [2]
O=C1C(=O)c2cccnc2-c2ncccc21 [1.10-phenanthroline-5.6-dione] | ~130 mmol/L | 600-700 μA | the best redox aromatic molecule | strong increase in the catalytic current | progressive decrease in the performance of bioelectrocatalysis | sharp decrease in the catalytic current | – | – | –
c1cnc2c(c1)ccc1cccnc12 [1.10-phenanthroline] | – | – | – | – | progressive decrease in the performance of bioelectrocatalysis | – | The catalytic current drops again | inhibitor of the enzyme FAD-GDH | –
O=C1C(=O)c2ccccc2-c2ccccc21 [9.10-phenanthrenequinone] | – | – | – | strong increase of the catalytic current | – | no decrease in the catalytic current | – | – | does not cause a drastic decrease in the catalytic currents
c1ccc2c(c1)ccc1ccccc12 [phenanthrene] | – | – | – | – | – | – | – | – | does not cause a drastic decrease in the catalytic currents
